Assay results reported in patent US11969401B2, “Compositions and methods for treating or limiting development of age-related macular degeneration” (Arizona Board of Regents on Behalf of The University of …, priority 2019, dated 2024).

Test system: retinal pigment epithelium (RPE) cells
Experiment: Circadian patterns of VEGF secretion by perfused RPE monolayers (ELISA, Cosinor fit)
Type: cell-based
Conditions: alternating 12-hour intervals, conclusion in words
Procedure: The purpose of this study was to test whether retinal pigment epithelium (RPE) cells express vascular endothelial growth factor (VEGF) in a circadian manner. We tested the hypothesis that 12 hour alternating intervals of dopamine then melatonin combined with L-DOPA would induce RPE cells into a circadian rhythm that controlled VEGF expression. Methods: RPE monolayers were produced on snap-well filters, which were maintained in static culture conditions for at least six months, during which time they became pigmented and well differentiated. […] A baseline of VEGF secretion was established over a 3-week period. After the baseline was established, the cells were perfused with media containing 1 ? M dopamine for 12 hours, then media containing 1 ? M melatonin plus 1 ? M L-DOPA for the next 12 hours. […] Initiation of the next drug dilutes the previous over 12 hours while simultaneously ramping up the new drug. Cells were maintained in this circadian rhythm for at least three cycles. […] The amount of VEGF was plotted against the time of perfusion and fitted using the Cosinor method to find a length of circadian cycle and corresponding p-value for statistical analysis.

Compound | effect on RPE VEGF secretion
N[C@@H](Cc1ccc(O)c(O)c1)C(=O)O [L-DOPA, 2-amino-3-(3,4-dihydroxyphenyl)propanoic acid] | antagonize dopamine effects
NCCc1ccc(O)c(O)c1 [dopamine] | increase RPE VEGF secretion
COc1ccc2[nH]cc(CCNC(C)=O)c2c1 [melatonin, Melatonin] | antagonize dopamine effects
